Test results: publication PMC4014597 (PLoS ONE, 2014)

What was measured:
[1] = target: T1, human G9a-like protein (GLP) (Homo sapiens, UniProt Q9H9B1); experiment: GLP assay (histone methylation inhibition); assay type: biochemical; details: 8 μM inhibitor; read-out: Percent of GLP inhibition
T1 construct: catalytic SET domain (residues 734-1235; pXC758) were purified as described; made in house
T1 sequence (Q9H9B1 765-1266): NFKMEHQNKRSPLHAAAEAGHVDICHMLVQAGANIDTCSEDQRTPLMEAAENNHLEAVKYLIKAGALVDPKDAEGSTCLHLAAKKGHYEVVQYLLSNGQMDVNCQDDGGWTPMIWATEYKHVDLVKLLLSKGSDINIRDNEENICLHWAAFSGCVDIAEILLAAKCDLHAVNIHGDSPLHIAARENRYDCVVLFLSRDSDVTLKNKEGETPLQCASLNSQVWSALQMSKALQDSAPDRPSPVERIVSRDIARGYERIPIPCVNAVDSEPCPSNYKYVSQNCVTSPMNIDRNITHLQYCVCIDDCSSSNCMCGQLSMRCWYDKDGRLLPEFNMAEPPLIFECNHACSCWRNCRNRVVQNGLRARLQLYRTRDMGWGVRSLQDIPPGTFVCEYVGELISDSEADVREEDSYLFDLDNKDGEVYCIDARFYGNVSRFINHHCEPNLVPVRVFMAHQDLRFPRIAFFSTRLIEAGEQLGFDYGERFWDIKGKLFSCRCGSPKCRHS
Description: GLP Assay. Recombinant human G9a-like protein (GLP) C-terminal fragment containing both the ankyrin repeats and catalytic SET domain (residues 734-1235; pXC758) were purified as described. For histone methylation inhibition, the assay was performed in 20 μL reaction containing 4.6 mM [methyl-^3H]-AdoMet, 50 μg/mL histone from calf thymus (SIGMA), 10 μg/mL (0.17 μM) GLP, 100 mM KCl, 5 mM (DTT) and 50 mM Tris-HCl pH 8.5. GLP was pre-incubated with AdoMet and 8 µM inhibitors for 5 min at 30 °C before the addition of the histone substrate. After incubation (5 min), the reaction was terminated by the addition of 20% trichloroacetic acid (TCA, Fisher Scientific). The reaction mixture was spotted on GF/A paper circles (Whatman), washed three times with 3 mL of 10% TCA and once with 3 mL of ethanol. The dried circles were subjected to liquid-scintillation counting with Cytoscint scintillant.

[2] = target: T2, C-terminal catalytic domain of human DNMT3A (hDNMT3A) (Homo sapiens, UniProt Q9Y6K1); experiment: DNMT3A assay (restriction-based fluorescence assay); assay type: biochemical; details: for inhibition at 100 µM: 100 µM compound; for inhibition at 100 µM / inhibition at 10 µM / inhibition at 32 µM / inhibition at 3.2 µM: read-out: % inhibition ± SD hDNMT3A
T2 construct: catalytic domain of human DNMT3A (residues 623–908), produced as described; made in house
T2 sequence (Q9Y6K1 627-912): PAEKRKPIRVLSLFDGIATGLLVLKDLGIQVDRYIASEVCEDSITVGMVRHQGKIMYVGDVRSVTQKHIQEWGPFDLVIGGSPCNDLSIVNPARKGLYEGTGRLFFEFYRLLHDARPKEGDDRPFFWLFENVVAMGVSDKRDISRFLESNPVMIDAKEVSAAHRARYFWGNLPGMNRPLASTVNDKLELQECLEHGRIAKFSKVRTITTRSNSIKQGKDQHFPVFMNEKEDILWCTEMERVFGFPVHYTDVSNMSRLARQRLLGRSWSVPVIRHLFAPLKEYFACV
From the text: DNMT3A enzyme inhibition was adapted from the restriction-based fluorescence assay protocol described in Ceccaldi et al.. Briefly, a 5'-labelled biotin oligonucleotide is hybridized to its complementary strand labelled with 6-carboxyfluorescein at the 3′-end into a 384 well microplate (black Optiplates; Perkin Elmer) pre-coated with avidin. The duplex contains a unique CpG site overlapping with a restriction site of a methylation sensitive restriction enzyme. The C-terminal catalytic domain of human DNMT3A (residues 623–908), produced as described, was added in each well (200 ng/well) and mixed with the chemical compounds at desired concentrations and freshly prepared AdoMet (20 µM final concentration) to start the reaction in a total volume of 50 µL. After 1 hour incubation at 37°C each well were washed three times with PBS, 0.05% Tween-20, 500 mM NaCl and three more times with PBST. Specific fluorescent signals were detected with the methylation-sensitive restriction enzyme HpyCH4IV (NEB) as described and measured on a Perkin Elmer Envision detector. The percentage of inhibition is reported. The formula used to calculate the percentage of inhibition is [(X-Y)/X]×100, where X is the signal determined in the absence of the inhibitor and Y is the signal obtained in the presence of the inhibitor. […] The non-linear regression fittings with sigmoidal dose-response (variable slope) were performed with GraphPad Prism 4.03 (GraphPad Software).

human DNMT1 (hDNMT1) = target: T3, human DNMT1 (hDNMT1) (Homo sapiens, UniProt P26358); experiment: DNMT1 assay (radioactive Flashplate methylation assay); assay type: biochemical; details: 100 µM compound; for inhibition at 100 µM: read-out: % inhibition ± SD hDNMT1
T3 construct: His; made in house
T3 sequence (P26358 whole entry): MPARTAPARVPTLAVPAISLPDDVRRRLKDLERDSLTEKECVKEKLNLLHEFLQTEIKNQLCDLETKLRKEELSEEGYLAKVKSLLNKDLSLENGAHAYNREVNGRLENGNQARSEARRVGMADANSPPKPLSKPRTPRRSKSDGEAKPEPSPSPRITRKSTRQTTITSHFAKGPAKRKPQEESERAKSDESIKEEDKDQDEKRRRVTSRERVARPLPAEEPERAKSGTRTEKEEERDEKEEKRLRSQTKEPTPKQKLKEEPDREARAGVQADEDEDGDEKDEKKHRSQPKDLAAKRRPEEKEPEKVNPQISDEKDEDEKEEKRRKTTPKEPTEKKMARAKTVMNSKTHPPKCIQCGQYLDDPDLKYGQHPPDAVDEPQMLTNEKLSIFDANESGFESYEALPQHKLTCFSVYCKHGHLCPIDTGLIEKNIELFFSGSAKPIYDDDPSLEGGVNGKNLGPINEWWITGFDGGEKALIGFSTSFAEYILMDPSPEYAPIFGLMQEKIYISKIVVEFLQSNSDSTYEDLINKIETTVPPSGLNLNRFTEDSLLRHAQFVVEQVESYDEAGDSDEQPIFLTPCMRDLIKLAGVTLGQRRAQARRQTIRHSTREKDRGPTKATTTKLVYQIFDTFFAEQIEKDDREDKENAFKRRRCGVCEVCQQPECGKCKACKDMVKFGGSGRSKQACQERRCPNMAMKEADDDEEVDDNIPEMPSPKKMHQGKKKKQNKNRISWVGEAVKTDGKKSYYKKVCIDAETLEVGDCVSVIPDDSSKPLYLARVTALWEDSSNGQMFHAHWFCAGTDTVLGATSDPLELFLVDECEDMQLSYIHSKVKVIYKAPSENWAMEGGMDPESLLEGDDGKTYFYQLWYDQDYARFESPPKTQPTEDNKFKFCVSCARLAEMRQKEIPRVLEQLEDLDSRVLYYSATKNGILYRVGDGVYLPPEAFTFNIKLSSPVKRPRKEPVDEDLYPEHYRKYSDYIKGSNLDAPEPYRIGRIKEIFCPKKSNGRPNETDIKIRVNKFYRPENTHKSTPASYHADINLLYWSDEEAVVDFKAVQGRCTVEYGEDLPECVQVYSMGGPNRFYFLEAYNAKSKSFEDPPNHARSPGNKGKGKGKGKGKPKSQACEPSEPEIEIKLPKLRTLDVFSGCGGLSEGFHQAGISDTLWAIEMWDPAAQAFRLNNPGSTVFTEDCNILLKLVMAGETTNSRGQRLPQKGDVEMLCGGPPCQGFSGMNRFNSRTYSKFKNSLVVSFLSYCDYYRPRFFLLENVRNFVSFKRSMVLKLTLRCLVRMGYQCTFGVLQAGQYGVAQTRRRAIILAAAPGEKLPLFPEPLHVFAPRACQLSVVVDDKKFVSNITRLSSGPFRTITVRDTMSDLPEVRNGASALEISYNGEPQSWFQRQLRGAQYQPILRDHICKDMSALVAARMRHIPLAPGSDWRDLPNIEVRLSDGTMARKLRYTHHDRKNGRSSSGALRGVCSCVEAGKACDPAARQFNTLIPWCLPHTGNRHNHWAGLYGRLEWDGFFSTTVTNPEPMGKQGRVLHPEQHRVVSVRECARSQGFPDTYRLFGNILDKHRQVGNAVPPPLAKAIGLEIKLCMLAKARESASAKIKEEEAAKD
Description: His-DNMT1 (182 kDa, human) was cloned, expressed and purified as described by Lee et al.. The DNMT1 assay was performed according to Gros et al.. Briefly, the reaction was started by addition of 90 nM of DNMT1 on a mix containing the tested compound (up to 1% DMSO), 1 µM of a AdoMet/[methyl-^3H]-AdoMet mix in a ratio of 3-to-1 (isotopic dilution 1*:3) and 0.3 µM of biotinylated DNA duplex in 10 µL final volume. The reaction was incubated at 37°C for 2 h in reaction buffer (20 mM HEPES pH 7.2, 1 mM EDTA, 50 mM KCl, 25 µg/mL BSA). 8 µL are then transferred into a streptavidin-coated Flashplate PLUS (PerkinElmer) containing 190 µL of 20 µM AdoHcy (Sigma-Aldrich) in 50 mM Tris-HCl pH 7.4. The Flashplate was agitated at room temperature for 1 h, washed three times with 200 µL of 0.05% Tween-20 in 50 mM Tris-HCl pH 7.4 and read in 200 µL of 50 mM Tris-HCl pH 7.4 on TopCount NXT (PerkinElmer). Percentages of inhibition were calculated with the same formula as in DNMT3A assay.

U-937 cells = system: U-937 cells; parameters: method as in PMID 24387159; details: 48 h; read-out: IC50 (mean ± SD) cell viability U-937; cited from earlier work
RAJI cells = system: RAJI cells; parameters: method as in PMID 24387159; details: 48 h; read-out: IC50 (mean ± SD) cell viability RAJI; cited from earlier work
[3] = system: CMV-luc construct in KG-1 cells; experiment: CMV-luc assay (luciferase re-expression from methylated CMV promoter); assay type: cell-based; details: 24 h
Human G9a = target: T4, Human G9a (Homo sapiens, UniProt Q96KQ7); experiment: G9a assay (3H-AdoMet filter-binding); assay type: biochemical; details: 10-dose IC50 mode, 2-fold serial dilution starting at 400 µM
T4 sequence (Q96KQ7 786-1210 limits assumed): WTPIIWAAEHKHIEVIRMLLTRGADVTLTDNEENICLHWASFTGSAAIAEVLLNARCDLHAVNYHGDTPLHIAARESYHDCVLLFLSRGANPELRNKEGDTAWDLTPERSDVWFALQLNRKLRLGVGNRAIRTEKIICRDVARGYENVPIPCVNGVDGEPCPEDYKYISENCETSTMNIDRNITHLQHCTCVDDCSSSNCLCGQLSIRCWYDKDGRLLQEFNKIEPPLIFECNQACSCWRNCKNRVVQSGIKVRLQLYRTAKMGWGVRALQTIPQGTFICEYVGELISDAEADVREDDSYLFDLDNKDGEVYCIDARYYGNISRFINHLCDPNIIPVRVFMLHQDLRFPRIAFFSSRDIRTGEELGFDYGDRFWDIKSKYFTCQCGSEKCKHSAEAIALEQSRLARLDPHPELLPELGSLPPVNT
Description: The reaction buffer was 50 mM Tris-HCl, pH 8.5, 50 mM NaCl, 5 mM MgCl2, 1 mM dithiothreitol (DTT), 1 mM PMSF, and 1% DMSO. Standard substrate concentrations were 5 µM biotinylated H3 (1–21) peptide (AnaSpec) substrate and 0.1 mM AdoMet. For control compound IC50 determinations, the test compounds were diluted in DMSO and then added to the enzyme/substrate mixture in nanoliter amounts by using an acoustic technology (Echo 500; Lab-cyte). The reaction was initiated by the addition of ^3H-AdoMet, and incubated at 30°C for 1 h. The reaction was detected by a filter-binding method. Data analysis was performed using Graph Pad Prism software for curve fits, and GraFit (Erithacus) for global fit of kinetic studies.

COc1cc2nc(N3CCCN(C)CC3)nc(NC3CCN(Cc4ccccc4)CC3)c2cc1OC [Compound 1, BIX-01294, reference compound]
inhibition at 8 µM [1]: 91.7%
inhibition at 100 µM [2]: 12 ± 3%
% inhibition ± SD hDNMT1 (human DNMT1 (hDNMT1); 100 µM): 35±8%
inhibition at 100 µM (human DNMT1 (hDNMT1)): 30%

CN1CCN(c2nc(NC3CCN(Cc4ccccc4)CC3)c3ccccc3n2)CC1 [Compound 5]
inhibition at 10 µM ([2]; 10 µM compound): 0%
inhibition at 32 µM ([2]; 32 µM compound): 14 ± 3%
inhibition at 100 µM [2]: 30 ± 8%
inhibition at 100 µM (human DNMT1 (hDNMT1)): 0%

c1ccc(CN2CCC(Nc3nc(N4CCCCC4)nc4ccccc34)CC2)cc1 [Compound 6]
inhibition at 3.2 µM ([2]; 3.2 µM compound): 11 ± 5%
inhibition at 10 µM ([2]; 10 µM compound): 14 ± 6%
inhibition at 32 µM ([2]; 32 µM compound): 33 ± 6%
inhibition at 100 µM [2]: 57 ± 8%
inhibition at 100 µM (human DNMT1 (hDNMT1)): 0%

c1ccc(CN2CCC(Nc3nc(N4CCCCCC4)nc4ccccc34)CC2)cc1 [Compound 7]
melting point: 119 to 122 °C
inhibition at 3.2 µM ([2]; 3.2 µM compound): 7 ± 2%
inhibition at 10 µM ([2]; 10 µM compound): 16 ± 2%
inhibition at 32 µM ([2]; 32 µM compound): 32 ± 3%
inhibition at 100 µM [2]: 57 ± 3%
inhibition at 100 µM (human DNMT1 (hDNMT1)): 0%

CC1CCN(c2nc(NC3CCN(Cc4ccccc4)CC3)c3ccccc3n2)CC1 [Compound 8]
melting point: 106 to 108 °C
inhibition at 3.2 µM ([2]; 3.2 µM compound): 7 ± 1%
inhibition at 10 µM ([2]; 10 µM compound): 14 ± 2%
inhibition at 32 µM ([2]; 32 µM compound): 35 ± 5%
inhibition at 100 µM [2]: 53 ± 3%
inhibition at 100 µM (human DNMT1 (hDNMT1)): 0%

CC1CCCCN1c1nc(NC2CCN(Cc3ccccc3)CC2)c2ccccc2n1 (centres unmarked) [Compound 9]
melting point: 128 to 129 °C
inhibition at 3.2 µM ([2]; 3.2 µM compound): 1 ± 1%
inhibition at 10 µM ([2]; 10 µM compound): 5 ± 2%
inhibition at 32 µM ([2]; 32 µM compound): 14 ± 7%
inhibition at 100 µM [2]: 47 ± 5%
inhibition at 100 µM (human DNMT1 (hDNMT1)): 0%

c1ccc(CN2CCC(Nc3nc(N4CCSCC4)nc4ccccc34)CC2)cc1 [Compound 11]
melting point: 155 to 157 °C
inhibition at 10 µM ([2]; 10 µM compound): 8 ± 2%
inhibition at 100 µM [2]: 42 ± 3%
inhibition at 100 µM (human DNMT1 (hDNMT1)): 0%

c1ccc(CN2CCC(Nc3nc(N4CCOCC4)nc4ccccc34)CC2)cc1 [Compound 12, N-(1-benzylpiperidin-4-yl)-2-morpholinoquinazolin-4-amine]
inhibition at 100 µM [2]: 7%
inhibition at 100 µM (human DNMT1 (hDNMT1)): 0%

O=C(c1ccccc1)N1CCN(c2nc(NC3CCN(Cc4ccccc4)CC3)c3ccccc3n2)CC1 [Compound 15]
melting point: 213 to 215 °C
inhibition at 100 µM [2]: 23 ± 2%
inhibition at 100 µM (human DNMT1 (hDNMT1)): 0%

OCCNc1nc(NC2CCN(Cc3ccccc3)CC2)c2ccccc2n1 [Compound 16]
melting point: 116 to 118 °C
inhibition at 10 µM ([2]; 10 µM compound): 8 ± 3%
inhibition at 100 µM [2]: 37 ± 4%
inhibition at 100 µM (human DNMT1 (hDNMT1)): 0%

CN(C)CCNc1nc(NC2CCN(Cc3ccccc3)CC2)c2ccccc2n1 [Compound 17]
melting point: 120 to 122 °C
inhibition at 100 µM [2]: 10%
inhibition at 100 µM (human DNMT1 (hDNMT1)): 0%

CN(C)CCCNc1nc(NC2CCN(Cc3ccccc3)CC2)c2ccccc2n1 [Compound 18]
inhibition at 100 µM [2]: 8 ± 1%
inhibition at 100 µM (human DNMT1 (hDNMT1)): 0%

Cc1cc(Nc2ccc(NC(=O)c3ccc(Nc4ccnc5ccccc45)cc3)cc2)nc(N)n1 [SGI-1027, reference compound]
IC50 (U-937 cells): 1700 ± 1100 nM
IC50 (RAJI cells): 9.1 ± 0.8 µM
% inhibition ± SD hDNMT3A ([2]; 3.2 µM compound): 80±4%
% inhibition ± SD hDNMT3A ([2]; 10 µM compound): 72±6%
% inhibition ± SD hDNMT3A ([2]; 32 µM compound): 75±7%
% inhibition ± SD hDNMT1 (human DNMT1 (hDNMT1)): 100±0.1%
fold-induction of the luciferase signal (CMV-luc) ([3]; 5 µM): 17 fold
fold-induction of the luciferase signal (CMV-luc) ([3]; 10 µM): 10 fold
fold-induction of the luciferase signal (CMV-luc) ([3]; 25 µM): no induction

CN1C(=O)[C@@]23C[C@]4([C@]56C[C@@]78SS[C@@](CO)(C(=O)N7[C@H]5Nc5ccccc56)N(C)C8=O)c5ccccc5N[C@@H]4N2C(=O)[C@]1(CO)SS3 [chaetocin, reference compound]
IC50 (Human G9a): 8 µM
